Reference: ChEMBL document CHEMBL3585290, “Synthesis and biological evaluation of novel bivalent -carbolines as potential antitumor agents” (Medchemcomm, 2014)

Legend:
SK-OV-3 = experiment: Cytotoxicity against human SKOV3 cells after 48 hrs by MTT assay; assay type: functional, cell-based; settings: SK-OV-3, 48 h
KB = experiment: Cytotoxicity against human KB cells after 48 hrs by MTT assay; assay type: functional, cell-based
769-P = experiment: Cytotoxicity against human 769-P cells after 48 hrs by MTT assay; assay type: functional, cell-based
A-375 = experiment: Cytotoxicity against human A375 cells after 48 hrs by MTT assay; assay type: functional, cell-based; settings: A-375, 48 h
[1] = Cytotoxicity against human BGC823 cells after 48 hrs by MTT assay; assay type: functional, cell-based; settings: BGC-823, 48 h
[2] = Acute toxicity in ip dosed C57BL/6 mouse measured for 14 days; assay type: organism-based; settings: in vivo
[3] = tested on: Lewis lung carcinoma cell line; experiment: Antitumor activity against mouse LLC cells implanted in mouse assessed as tumor growth inhibition at 223.8 umol/kg, ip qd administered for 7 days starting 24 hrs post tumor implantation measured after day 21 relative to control; assay type: functional; settings: read-out: TGI
CT26 = experiment: Antitumor activity against mouse CT26 cells implanted in mouse assessed as tumor growth inhibition at 223.8 umol/kg, ip qd administered for 7 days starting 24 hrs post tumor implantation measured after day 21 relative to control; assay type: functional; settings: read-out: TGI

In the case of `Cc1nc(C(=O)OCCCCCCCCCOC(=O)c2cc3c4ccccc4n(CCCc4ccccc4)c3c(C)n2)cc2c3ccccc3n(CCCc3ccccc3)c12`, the IC50 (SK-OV-3) is reported as > 200 µM, the IC50 (KB) is reported as 50.7 µM and the IC50 (769-P) is reported as 108 µM. The IC50 (A-375) was > 200 µM and the IC50 [1] was > 200 µM.

In the case of `CCCCn1c2ccccc2c2cc(C(=O)O)ncc21`, the LD50 at 336 h [2] is reported as 1120 µmol/kg, the IC50 (SK-OV-3) is reported as > 200 µM and the IC50 (KB) is reported as 67.7 µM. The IC50 (769-P) was 42.7 µM, the IC50 (A-375) was 79.6 µM and the inhibition in vivo at 223.8 µmol/kg [3] was 45.4%. It also gave an IC50 [1] of 125 µM and an inhibition in vivo at 223.8 µmol/kg (CT26) of 18.7%.

For `O=C(OCCCCCCCOC(=O)c1cc2c3ccccc3n(CCCc3ccccc3)c2cn1)c1cc2c3ccccc3n(CCCc3ccccc3)c2cn1`, the IC50 (SK-OV-3) was > 200 µM, the IC50 (KB) was 78.9 µM and the IC50 (769-P) was 43.5 µM. The IC50 (A-375) was 143 µM and the IC50 [1] was > 200 µM.

For `CCCCn1c2ccccc2c2cc(C(=O)OCCCCCCCCCCOC(=O)c3cc4c5ccccc5n(CCCC)c4cn3)ncc21`, the IC50 (SK-OV-3) was > 200 µM, the IC50 (KB) was 45.2 µM and the IC50 (769-P) was 89.2 µM. For the same compound, the IC50 (A-375) was > 200 µM and the IC50 [1] was 168 µM.

In the case of `CCn1c2ccccc2c2cc(C(=O)OCCCCCCCCCOC(=O)c3cc4c5ccccc5n(CC)c4c(C)n3)nc(C)c21`, the IC50 (SK-OV-3) is reported as > 200 µM, the IC50 (KB) is reported as 56.9 µM and the IC50 (769-P) is reported as 10.3 µM. The IC50 (A-375) was > 200 µM and the IC50 [1] was > 200 µM.

For `COc1cc(-c2nc(C(=O)OCCCCCCOC(=O)c3cc4c5ccccc5n(CCCc5ccccc5)c4c(-c4cc(OC)c(OC)c(OC)c4)n3)cc3c4ccccc4n(CCCc4ccccc4)c23)cc(OC)c1OC`, the IC50 (SK-OV-3) was > 200 µM, the IC50 (KB) was > 200 µM and the IC50 (769-P) was 118 µM. The IC50 (A-375) was 134 µM and the IC50 [1] was 168 µM.

For `Cc1nc(C(=O)OCCCCCOC(=O)c2cc3c4ccccc4n(Cc4ccccc4)c3c(C)n2)cc2c3ccccc3n(Cc3ccccc3)c12`, the IC50 (SK-OV-3) was > 200 µM, the IC50 (KB) was 42.4 µM and the IC50 (769-P) was 72.4 µM. The IC50 (A-375) was 125 µM and the IC50 [1] was > 200 µM.

With `CCCCn1c2ccccc2c2cc(C(=O)OCCCCCCCCCOC(=O)c3cc4c5ccccc5n(CCCC)c4cn3)ncc21` the IC50 (SK-OV-3) was > 200 µM, the IC50 (KB) was 26.4 µM and the IC50 (769-P) was 115 µM. For the same compound, the IC50 (A-375) was 89.6 µM and the IC50 [1] was > 200 µM.

In the case of `O=C(OCCCOC(=O)c1cc2c3ccccc3n(CCCc3ccccc3)c2cn1)c1cc2c3ccccc3n(CCCc3ccccc3)c2cn1`, the IC50 (SK-OV-3) is reported as > 200 µM, the IC50 (KB) is reported as 72.4 µM and the IC50 (769-P) is reported as 95.6 µM. For the same compound, the IC50 (A-375) was > 200 µM and the IC50 [1] was > 200 µM.

With `O=C(OCCCCOC(=O)c1cc2c3ccccc3n(Cc3ccccc3)c2cn1)c1cc2c3ccccc3n(Cc3ccccc3)c2cn1` the IC50 (SK-OV-3) was > 200 µM, the IC50 (KB) was > 200 µM and the IC50 (769-P) was 45.4 µM. For the same compound, the IC50 (A-375) was 7.9 µM and the IC50 [1] was 43.6 µM.

For `CCn1c2ccccc2c2cc(C(=O)OCCCCCCCCOC(=O)c3cc4c5ccccc5n(CC)c4c(C)n3)nc(C)c21`, the IC50 (SK-OV-3) was 86.4 µM, the IC50 (KB) was > 200 µM and the IC50 (769-P) was 21.7 µM. The IC50 (A-375) was 86.3 µM and the IC50 [1] was > 200 µM.

For `CCCCn1c2ccccc2c2cc(C(=O)OCCCCCCCOC(=O)c3cc4c5ccccc5n(CCCC)c4c(C)n3)nc(C)c21`, the IC50 (SK-OV-3) was 71.5 µM, the IC50 (KB) was > 200 µM and the IC50 (769-P) was 95.9 µM. The IC50 (A-375) was > 200 µM and the IC50 [1] was > 200 µM.

With `Cc1nc(C(=O)OCCCCCCOC(=O)c2cc3c4ccccc4n(C)c3c(C)n2)cc2c3ccccc3n(C)c12` the IC50 (SK-OV-3) was > 200 µM, the IC50 (KB) was 165 µM and the IC50 (769-P) was 28.3 µM. The IC50 (A-375) was 82.6 µM and the IC50 [1] was > 200 µM.

For `CCCCn1c2ccccc2c2cc(C(=O)OCCCCCOC(=O)c3cc4c5ccccc5n(CCCC)c4cn3)ncc21`, the IC50 (SK-OV-3) was > 200 µM, the IC50 (KB) was 53.9 µM and the IC50 (769-P) was 32.9 µM. For the same compound, the IC50 (A-375) was > 200 µM and the IC50 [1] was > 200 µM.

For `CCn1c2ccccc2c2cc(C(=O)OCCCCCCOC(=O)c3cc4c5ccccc5n(CC)c4c(-c4ccc(OC)cc4)n3)nc(-c3ccc(OC)cc3)c21`, the IC50 (SK-OV-3) was > 200 µM, the IC50 (KB) was 89.2 µM and the IC50 (769-P) was 65.9 µM. For the same compound, the IC50 (A-375) was > 200 µM and the IC50 [1] was > 200 µM.

With `CCn1c2ccccc2c2cc(C(=O)OCCCCCCOC(=O)c3cc4c5ccccc5n(CC)c4c(-c4cc(OC)c(OC)c(OC)c4)n3)nc(-c3cc(OC)c(OC)c(OC)c3)c21` the IC50 (SK-OV-3) was 47.4 µM, the IC50 (KB) was 20.7 µM and the IC50 (769-P) was 10.9 µM. The IC50 (A-375) was 40.4 µM and the IC50 [1] was 159 µM.
